# Data reported in patent US20190322676A1, “CERAMIDE GALACTOSYLTRANSFERASE INHIBITORS FOR THE TREATMENT OF DISEASE” (BioMarin Pharmaceutical Inc., priority 2016, published 2019).
# Counter-ions that a name gives are not always drawn.
# Molecular target: T1, human CGT (ceramide galactosyltransferase), CHO/CGT lysate (Homo sapiens, UniProt Q16880)
# T1 construct: Full-length human CGT cDNA was cloned into the BamH1/Xho1 site of pcDNA3.1 (+); expressed in transfected cells; host or cells: Chinese hamster ovary (CHO) cells; lysate prepared with M-PER
# T1 sequence (Q16880 21-541): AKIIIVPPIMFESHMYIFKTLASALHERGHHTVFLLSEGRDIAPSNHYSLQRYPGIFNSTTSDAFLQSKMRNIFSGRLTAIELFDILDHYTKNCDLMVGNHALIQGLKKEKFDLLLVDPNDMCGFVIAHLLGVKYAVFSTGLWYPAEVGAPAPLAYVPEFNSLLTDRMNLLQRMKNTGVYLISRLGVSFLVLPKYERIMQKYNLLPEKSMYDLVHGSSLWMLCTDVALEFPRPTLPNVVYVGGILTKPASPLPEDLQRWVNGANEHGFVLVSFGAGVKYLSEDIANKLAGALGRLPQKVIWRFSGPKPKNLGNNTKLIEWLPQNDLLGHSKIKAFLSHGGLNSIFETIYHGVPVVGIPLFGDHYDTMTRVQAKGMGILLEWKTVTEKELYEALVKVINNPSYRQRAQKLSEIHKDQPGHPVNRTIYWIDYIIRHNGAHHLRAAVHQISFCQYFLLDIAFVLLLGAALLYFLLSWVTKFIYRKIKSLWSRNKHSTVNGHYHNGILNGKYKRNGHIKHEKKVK
# Test: CGT enzyme assay, RapidFire/MS/MS readout (Table 1 ranges with one asterisk *)
# Type: biochemical
# Conditions: RapidFire method (range with one asterisk *)
# How it was run: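 IC50s come from variable-slope dose-response fits of internal-standard-normalized C6-NBD-dihydro-galactosylceramide, measured by RapidFire/MS/MS (ESI negative). Reactions: 1 h, 37 °C, human CGT-expressing CHO lysate (4 μg), 0.001–50 μM compound, 10 μM NBD-dihydro-ceramide, 17.5 μM UDP-galactose, 0.5% DMSO, pH 7.2; 0.01% Tween 80 added for ** values.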
row,SMILES,IC50 [µM]
1,"CN([C@@H](C(=O)N1C2CCC1CC(N)C2)C(F)(F)c1ccc(Oc2ccccc2)cc1)S(=O)(=O)c1ccc(OCC2CCCCC2)cc1 (stereo partly drawn) [Compound 85-2, N-((2S)-3-(3-amino-8-azabicyclo[3.2.1]octan-8-yl)-1,1-difluoro-3-oxo-1-(4-phenoxyphenyl)propan-2-yl)-4-(cyclohexylmethoxy)-N-methylbenzenesulfonamide trifluoroacetate]",10 to 30
2,"N[C@@H]1CCN(C(=O)[C@H](NS(=O)(=O)c2ccc3cc(OC4CCCC4)ccc3c2)C(F)(F)c2ccc(Br)cc2)C1 [Compound 139-2, N—((S)-3-((R)-3-aminopyrrolidin-1l-yl)-1-(4-bromophenyl)-1,1-difluoro-3-oxopropan-2-yl)-6-(cyclopentyloxy)naphthalene-2-sulfonamide]",1 to 10
3,"CN([C@H](C(=O)N1C2CCC1CC(N)C2)C(F)(F)c1ccc(C(F)(F)F)cc1)S(=O)(=O)c1ccc2cc(OC3CCCC3)ccc2c1 (stereo partly drawn) [Compound 73-1, N-((2R)-3-(3-amino-8-azabicyclo[3.2.1]octan-8-yl)-1,1-difluoro-3-oxo-1-(4-(trifluoromethyl)phenyl)propan-2-yl)-6-(cycyclopentyloxy)-N-methylnaphthalene-2-sulfonamide]",< 1
4,"CN([C@H](C(=O)N1C2CCC1CC(N)C2)C(F)(F)c1cccc(Br)c1)S(=O)(=O)c1ccc2cc(OC3CCCC3)ccc2c1 (stereo partly drawn) [Compound 67-1, N-((2R)-3-(3-amino-8-azabicyclo[3.2.1]octan-8-yl)-1-(3-bromophenyl)-1,1-difluoro-3-oxopropan-2-yl)-6-(cyclopentyloxy)-N-methylnaphthalene-2-sulfonamide]",1 to 10
5,"NC1CCN(C(=O)[C@@H](NS(=O)(=O)c2ccc3cc(OC4CCCC4)ccc3c2)C(F)(F)c2ccc(C(F)(F)F)cc2)CC1 [Compound 71-1, (R)—N-(3-(4-aminopiperidin-1-yl)-1,1-difluoro-3-oxo-1-(4-(trifluoromethyl)phenyl)propan-2-yl)-6-(cyclopentyloxy)naphthalene-2-sulfonamide]",< 1
6,"COc1cc(C(F)(F)[C@H](NS(=O)(=O)c2ccc3cc(OC4CCCC4)ccc3c2)C(=O)N2C3CCC2CC(N)C3)ccc1Br (stereo partly drawn) [Compound 89-1, N-((2R)-3-(3-amino-8-azabicyclo[3.2.1]octan-8-yl)-1-(4-bromo-3-methoxyphenyl)-1,1-difluoro-3-oxopropan-2-yl)-6-(cyclopentyloxy)naphthalene-2-sulfonamide]",< 1
7,"CCCCOc1cccc(C(F)(F)[C@@H](NS(=O)(=O)c2ccc3cc(OC4CCCC4)ccc3c2)C(=O)N2CCC(N)CC2)c1 [Compound 83-2, (S)—N-(3-(4-aminopiperidin-1-yl)-1-(3-butoxyphenyl)-1,1-difluoro-3-oxopropan-2-yl)-6-(cyclopentyloxy)naphthalene-2-sulfonamide trifluoroacetate]",1 to 10
8,"CCCCOc1cccc(C(F)(F)[C@H](NS(=O)(=O)c2ccc3cc(OC4CCCC4)ccc3c2)C(=O)N2C3CCC2CC(N)C3)c1 (stereo partly drawn) [Compound 90-1, N-((2R)-3-(3-amino-8-azabicyclo[3.2.1]octan-8-yl)-1-(3-butoxyphenyl)-1,1-difluoro-3-oxopropan-2-yl)-6-(cyclopentyloxy)naphthalene-2-sulfonamide trifluoroacetate]",< 1
9,"CN([C@H](C(=O)N1C2CCC1CC(N)C2)C(F)(F)c1ccc(O)cc1)S(=O)(=O)c1ccc2cc(OC3CCCC3)ccc2c1 (stereo partly drawn) [Compound 110-1, N-((2R)-3-(3-amino-8-azabicyclo[3.2.1]octan-8-yl)-1,1-difluoro-1-(4-hydroxyphenyl)-3-oxopropan-2-yl)-6-(cyclopentyloxy)-N-methylnaphthalene-2-sulfonamide trifluoroacetate]",1 to 10
10,"CN([C@H](C(=O)N1C2CCC1CC(N)C2)C(F)(F)c1ccc(OCc2ccccc2)cc1)S(=O)(=O)c1ccc2cc(OC3CCCC3)ccc2c1 (stereo partly drawn) [Compound 106-1, N-((2R)-3-(3-amino-8-azabicyclo[3.2.1]octan-8-yl)-1-(4-(benzyloxy)phenyl)-1,1-difluoro-3-oxopropan-2-yl)-6-(cyclopentyloxy)-N-methylnaphthalene-2-sulfonamide]",1 to 10
11,"NC1CC2CCC(C1)N2C(=O)[C@H](NC(=O)[C@@H](O)c1ccc2cc(OC3CCCC3)ccc2c1)C(F)(F)c1ccc(Br)cc1 (stereo partly drawn) [Compound 41-6, (2S)—N-((2S)-3-(3-amino-8-azabicyclo[3.2.1]octan-8-yl)-1-(4-bromophenyl)-1,1-difluoro-3-oxopropan-2-yl)-2-(6-(cyclopentyloxy)naphthalen-2-yl)-2-hydroxyacetamide trifluoroacetate]",30 to 100
12,"NC1CC2CCC(C1)N2C(=O)[C@H](NC(=O)C(=O)c1ccc2cc(OC3CCCC3)ccc2c1)C(F)(F)c1ccc(-c2ccc(Cl)cc2)cc1 (stereo partly drawn) [Compound 133-2, N-((2S)-3-(3-amino-8-azabicyclo[3.2.1]octan-8-yl)-1-(4′-chloro-[1,1′-biphenyl]-4-yl)-1,1-difluoro-3-oxopropan-2-yl)-2-(6-(cyclopentyloxy)naphthalen-2-yl)-2-oxoacetamide trifluoroacetate]",30 to 100
13,"NC1CCN(C(=O)[C@H](NS(=O)(=O)c2ccc3c(cnn3CC3CCCC3)c2)C(F)(F)c2ccc(C(F)(F)F)cc2)CC1 [Compound 93-2, (S)—N-(3-(4-aminopiperidin-1-yl)-1,1-difluoro-3-oxo-1-(4-(trifluoromethyl)phenyl)propan-2-yl)-1-(cyclopentylmethyl)-1H-indazole-5-sulfonamide]",30 to 100
14,"CN([C@H](C(=O)N1C2CCC1CC(N)C2)C(F)(F)c1ccc(Br)cc1)S(=O)(=O)c1ccc2cc(OC3CCCCC3)ccc2c1 (stereo partly drawn) [Compound 37-1, N-((2R)-3-(3-amino-8-azabicyclo[3.2.1]octan-8-yl)-1-(4-bromophenyl)-1,1-difluoro-3-oxopropan-2-yl)-6-(cyclohexyloxy)-N-methylnaphthalene-2-sulfonamide trifluoroacetate]",< 1
15,"N[C@H]1CCN(C(=O)[C@H](NS(=O)(=O)c2ccc3cc(OC4CCCC4)ccc3c2)C(F)(F)c2ccc(Br)cc2)C1 [Compound 140-2, N—((S)-3-((S)-3-aminopyrrolidin-1-yl)-1-(4-bromophenyl)-1,1-difluoro-3-oxopropan-2-yl)-6-(cyclopentyloxy)naphthalene-2-sulfonamide]",10 to 30
16,"CCCCOc1ccc(C(F)(F)[C@H](C(=O)N2C3CCC2CC(N)C3)N(C)S(=O)(=O)c2ccc3cc(OC4CCCC4)ccc3c2)cc1 (stereo partly drawn) [Compound 51-2, N-((2S)-3-(3-amino-8-azabicyclo[3.2.1]octan-8-yl)-1-(4-butoxyphenyl)-1,1-difluoro-3-oxopropan-2-yl)-6-(cyclopentyloxy)-N-methylnaphthalene-2-sulfonamide]",1 to 10
17,"NC1CC2CCC(C1)N2C(=O)[C@@H](NS(=O)(=O)c1ccc2nn(CC3CCCC3)cc2c1)C(F)(F)c1ccc(Br)cc1 (stereo partly drawn) [Compound 77-1, N-((2R)-3-(3-amino-8-azabicyclo[3.2.1]octan-8-yl)-1-(4-bromophenyl)-1,1-difluoro-3-oxopropan-2-yl)-2-(cyclopentylmethyl)-2H-indazole-5-sulfonamide]",1 to 10
18,"COc1cc(C(F)(F)[C@H](NS(=O)(=O)c2ccc(OCC3CCCCC3)cc2)C(=O)N2CCC(N)CC2)ccc1Cl [Compound 129-1, (R)—N-(3-(4-aminopiperidin-1-yl)-1-(4-chloro-3-methoxyphenyl)-1,1-difluoro-3-oxopropan-2-yl)-4-(cyclohexylmethoxy)benzenesulfonamide]",1 to 10
